We go through five molecules from US8815872B2, “Macrocyclics pyrimidines as aurora kinase inhibitors” (Merck Patent GmbH, priority 2008, dated 2014).

For one series, the target named is T1, CHK1 (Homo sapiens, UniProt O14757).
T1 construct: purchased Caliper Life Sciences
Kind of series: Other kinases, inhibition at 1 μM (Table 3). Type of series: biochemical. On the procedure: (§1) The Aurora and other kinase assays described here were performed on two Caliper Life Sciences systems, the LC3000 and the Desktop Profiler. These provide data on enzyme activity via measurement of the relative amounts of phosphorylated or unphosphorylated fluorescently labelled substrate peptide at the end of an enzymatic reaction. These different states of peptide are resolved by applying a potential difference across the sample. The presence of a charged phosphate group on the product (as opposed to the substrate) causes a different peptide mobility between the two peptides. This is visualized by excitation of a fluorescent label on the substrate and product peptides and represented as peaks within the analysis software.
(§2) The Desktop Profiler utilizes the same principal as the LC 3000 for calculating percentage conversion of a substrate to product. Caliper Life Sciences provided proprietary flash frozen pre-made 384 well plates containing selected kinases. Each column in the 384 well plate contained a particular selected kinase. A second plate, the ‘substrate plate’ contained a mix of fluorescently labeled peptide substrate and ATP. These were arranged in columns so that transfer for substrate plate to enzyme plate provided the correct enzyme with the correct substrate/ATP concentration.
(§3) Compounds were added to a thawed enzyme plate in the desired format, in single concentrations. Reactions were initiated by transfer of the ubstrate/ATP mix from the substrate plate. The enzyme plate was incubated for 90 mins at 25 °C. The reaction was stopped by addition of […] of Stop Buffer (100 mM HEPES pH 7.5, 0.015% Brij-35, 10 mM EDTA (Sigma, E7889)).
(§4) Plates were read in a manner identical to that of the LC3000, and the ratio between substrate and product peaks provided the activity of the enzyme in that well. This was best represented by a plate heat map which colors each well by percent inhibition as compared to positive and negative controls (no inhibitors and no ATP respectively).

In another series the target is T2, CHK2 (Homo sapiens, UniProt O96017).
T2 construct: purchased Caliper Life Sciences
The series is described as follows: Other kinases, inhibition at 1 μM (Table 3). Type of series: biochemical. As to the method:
as §1, §2, §3, §4

A further series addresses T3, CSK (Homo sapiens, UniProt P41240).
T3 construct: purchased Caliper Life Sciences
Kind of series: Other kinases, inhibition at 1 μM (Table 3). It counts as biochemical. On the procedure: as §1, §2, §3, §4

A further series concerns the target T4, DYRK1-alpha (Homo sapiens, UniProt Q13627).
T4 construct: purchased Caliper Life Sciences
Kind of series: Other kinases, inhibition at 1 μM (Table 3). Type of series: biochemical. On the procedure:
as §1, §2, §3, §4

The target of the next series is T5, EphB3 (Homo sapiens, UniProt P54753).
T5 construct: purchased Caliper Life Sciences
Kind of series: Other kinases, inhibition at 1 μM (Table 3). It counts as biochemical. As to the method: as §1, §2, §3, §4

Another series addresses T6, IGF1-R (Homo sapiens, UniProt P08069).
T6 construct: purchased Caliper Life Sciences
The series is described as follows: Other kinases, inhibition at 1 μM (Table 3). It counts as biochemical. As to the method: as §1, §2, §3, §4

A further series addresses T7, IR (Homo sapiens, UniProt P06213).
T7 construct: purchased Caliper Life Sciences
The series is described as follows: Other kinases, inhibition at 1 μM (Table 3). Type of series: biochemical. On the procedure: as §1, §2, §3, §4

A further series deals with T8, IRR (Homo sapiens, UniProt P14616).
T8 construct: purchased Caliper Life Sciences
Kind of series: Other kinases, inhibition at 1 μM (Table 3). It counts as biochemical. As to the method:
as §1, §2, §3, §4

In a further series the target is T9, MARK3 (Homo sapiens, UniProt P27448).
T9 construct: purchased Caliper Life Sciences
The series is described as follows: Other kinases, inhibition at 1 μM (Table 3). Type of series: biochemical. On the procedure:
as §1, §2, §3, §4

The target of the next series is T10, MST4 (Homo sapiens, UniProt Q9P289).
T10 construct: purchased Caliper Life Sciences
T10 sequence (Q9P289 whole entry, species assumed): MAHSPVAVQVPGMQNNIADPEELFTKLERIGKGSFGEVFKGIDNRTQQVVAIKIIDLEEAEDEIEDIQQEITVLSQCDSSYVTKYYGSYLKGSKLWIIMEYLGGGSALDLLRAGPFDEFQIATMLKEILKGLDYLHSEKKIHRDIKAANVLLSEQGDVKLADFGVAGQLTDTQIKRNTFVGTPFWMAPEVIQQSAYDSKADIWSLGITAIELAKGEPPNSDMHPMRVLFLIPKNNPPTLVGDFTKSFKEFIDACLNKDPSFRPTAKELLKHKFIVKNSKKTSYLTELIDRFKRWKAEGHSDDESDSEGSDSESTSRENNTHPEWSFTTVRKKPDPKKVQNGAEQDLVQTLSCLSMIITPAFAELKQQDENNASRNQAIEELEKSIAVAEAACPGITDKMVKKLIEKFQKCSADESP
The series is described as follows: Other kinases, inhibition at 1 μM (Table 3). Type of series: biochemical. As to the method:
as §1, §2, §3, §4

The target of a further series is T11, NEK6 (Homo sapiens, UniProt Q9HC98).
T11 construct: purchased Caliper Life Sciences
The series is described as follows: Other kinases, inhibition at 1 μM (Table 3). It counts as biochemical. On the procedure:
as §1, §2, §3, §4

The next series concerns the target T12, Nek2a (Homo sapiens, UniProt P51955).
T12 construct: purchased Caliper Life Sciences
The series is described as follows: Other kinases, inhibition at 1 μM (Table 3). Type of series: biochemical. As to the method: as §1, §2, §3, §4

In the next series the target is T13, PAK6 (Homo sapiens, UniProt Q9NQU5).
T13 construct: purchased Caliper Life Sciences
Kind of series: Other kinases, inhibition at 1 μM (Table 3). Type of series: biochemical. As to the method:
as §1, §2, §3, §4

For a further series, the target named is T14, PIM-2 (Homo sapiens, UniProt Q9P1W9).
T14 construct: purchased Caliper Life Sciences
T14 sequence (Q9P1W9 whole entry, species assumed): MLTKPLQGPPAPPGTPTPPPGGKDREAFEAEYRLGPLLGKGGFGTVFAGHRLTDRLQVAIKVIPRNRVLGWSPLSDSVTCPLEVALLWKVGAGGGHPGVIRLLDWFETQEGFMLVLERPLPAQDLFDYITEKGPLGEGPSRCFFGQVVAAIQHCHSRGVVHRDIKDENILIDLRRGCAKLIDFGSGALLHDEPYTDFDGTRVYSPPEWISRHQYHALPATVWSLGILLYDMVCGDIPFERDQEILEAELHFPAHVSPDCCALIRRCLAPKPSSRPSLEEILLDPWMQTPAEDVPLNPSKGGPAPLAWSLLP
The series is described as follows: Other kinases, inhibition at 1 μM (Table 3). It counts as biochemical. As to the method:
as §1, §2, §3, §4

The target in another series is T15, PKA (Homo sapiens, UniProt P17612).
T15 construct: purchased Caliper Life Sciences
Kind of series: Other kinases, inhibition at 1 μM (Table 3). It counts as biochemical. On the procedure:
as §1, §2, §3, §4

The target in another series is T16, S6K1 (Homo sapiens, UniProt P23443).
T16 construct: purchased Caliper Life Sciences
T16 sequence (P23443 whole entry, species assumed): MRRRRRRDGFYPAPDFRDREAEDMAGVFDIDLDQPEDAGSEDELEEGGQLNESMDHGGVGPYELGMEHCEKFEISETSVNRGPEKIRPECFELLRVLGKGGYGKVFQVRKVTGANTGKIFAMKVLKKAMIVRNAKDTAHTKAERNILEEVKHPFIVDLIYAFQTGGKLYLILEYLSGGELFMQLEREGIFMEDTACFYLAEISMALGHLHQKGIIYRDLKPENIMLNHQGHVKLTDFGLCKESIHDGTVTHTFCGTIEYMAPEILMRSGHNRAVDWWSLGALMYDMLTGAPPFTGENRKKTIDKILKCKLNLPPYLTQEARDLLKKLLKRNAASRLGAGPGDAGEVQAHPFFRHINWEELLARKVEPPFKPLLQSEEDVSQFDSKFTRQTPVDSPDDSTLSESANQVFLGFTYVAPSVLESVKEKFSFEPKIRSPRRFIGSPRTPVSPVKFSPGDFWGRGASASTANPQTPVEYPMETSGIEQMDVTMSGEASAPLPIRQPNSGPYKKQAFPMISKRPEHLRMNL
Kind of series: Other kinases, inhibition at 1 μM (Table 3). It counts as biochemical. As to the method: as §1, §2, §3, §4

The next series concerns the target T17, SAPK2-beta (Homo sapiens, UniProt Q15759).
T17 construct: purchased Caliper Life Sciences
Kind of series: Other kinases, inhibition at 1 μM (Table 3). It counts as biochemical. On the procedure:
as §1, §2, §3, §4

The target in another series is T18, SAPK4 (Homo sapiens, UniProt O15264).
T18 construct: purchased Caliper Life Sciences
T18 sequence (O15264 whole entry, species assumed): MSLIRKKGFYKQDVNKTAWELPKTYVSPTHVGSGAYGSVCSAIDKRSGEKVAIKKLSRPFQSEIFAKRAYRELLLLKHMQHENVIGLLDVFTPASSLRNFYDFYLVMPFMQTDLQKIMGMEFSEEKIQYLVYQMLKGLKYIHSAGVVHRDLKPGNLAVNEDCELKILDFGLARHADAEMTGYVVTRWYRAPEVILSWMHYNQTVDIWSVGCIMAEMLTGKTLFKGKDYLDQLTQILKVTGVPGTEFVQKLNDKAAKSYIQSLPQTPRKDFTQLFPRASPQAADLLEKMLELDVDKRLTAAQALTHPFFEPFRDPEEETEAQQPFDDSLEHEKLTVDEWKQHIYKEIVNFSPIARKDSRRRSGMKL
The series is described as follows: Other kinases, inhibition at 1 μM (Table 3). Type of series: biochemical. On the procedure:
as §1, §2, §3, §4

A further series addresses T19, SGK (Homo sapiens, UniProt O00141).
T19 construct: purchased Caliper Life Sciences
The series is described as follows: Other kinases, inhibition at 1 μM (Table 3). It counts as biochemical. As to the method: as §1, §2, §3, §4

Another series has as its system VEGFR. Kind of series: Other kinases, inhibition at 1 μM (Table 3). It counts as biochemical. As to the method:
as §1, §2, §3, §4

Another series deals with T20, FAK(h) (Homo sapiens, UniProt Q05397).
T20 construct: purchased Caliper Life Sciences
Kind of series: Inhibition of other kinases IC50 (Table 2). Type of series: biochemical. On the procedure: as §1

For another series, the target named is T21, IRAK4(h) (Homo sapiens, UniProt Q9NWZ3).
T21 construct: purchased Caliper Life Sciences
T21 sequence (Q9NWZ3 1-460): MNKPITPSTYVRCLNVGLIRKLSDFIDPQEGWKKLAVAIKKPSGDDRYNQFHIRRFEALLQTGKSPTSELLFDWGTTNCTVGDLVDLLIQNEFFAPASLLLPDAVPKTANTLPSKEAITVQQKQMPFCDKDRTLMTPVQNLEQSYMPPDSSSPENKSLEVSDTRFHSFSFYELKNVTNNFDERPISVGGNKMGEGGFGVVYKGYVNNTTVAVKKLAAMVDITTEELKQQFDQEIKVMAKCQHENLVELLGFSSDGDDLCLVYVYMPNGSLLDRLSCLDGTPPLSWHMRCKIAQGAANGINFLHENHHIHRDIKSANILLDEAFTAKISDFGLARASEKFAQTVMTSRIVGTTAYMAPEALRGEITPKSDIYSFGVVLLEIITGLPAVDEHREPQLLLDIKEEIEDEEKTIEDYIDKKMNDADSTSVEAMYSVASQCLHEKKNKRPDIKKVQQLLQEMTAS
Kind of series: Inhibition of other kinases IC50 (Table 2). Type of series: biochemical. As to the method:
as §1

Another series addresses T22, Pyk2(h) (Homo sapiens, UniProt Q14289).
T22 construct: purchased Caliper Life Sciences
The series is described as follows: Inhibition of other kinases IC50 (Table 2). Type of series: biochemical. As to the method:
as §1

The target of the next series is T23, Ret(h) (Homo sapiens, UniProt P07949).
T23 construct: purchased Caliper Life Sciences
Kind of series: Inhibition of other kinases IC50 (Table 2). Type of series: biochemical. On the procedure:
as §1

The target in the next series is T24, Tie2(h) (Homo sapiens, UniProt Q02763).
T24 construct: purchased Caliper Life Sciences
Kind of series: Inhibition of other kinases IC50 (Table 2). It counts as biochemical. As to the method:
as §1

The conditions of series [1]: from C=CCOc1cccc(Nc2ncc(F)c(N[C@H]3[C@@H](C(N)=O)[C@@H]4C=C[C@H]3C4)n2)c1; rcm bond; Grubbs 2nd generation; dichloromethane; 19.2 mM; 40.0 °C; 3.0 h.
The target of a further series is T25, Abl(T315I)(h) (Homo sapiens, UniProt P00519, T315I).
T25 construct: purchased Caliper Life Sciences
Kind of series: Inhibition of other kinases IC50 (Table 2). Type of series: biochemical. As to the method: as §1

Each structure is given as a SMILES string.

T17 sequence (Q15759 whole entry): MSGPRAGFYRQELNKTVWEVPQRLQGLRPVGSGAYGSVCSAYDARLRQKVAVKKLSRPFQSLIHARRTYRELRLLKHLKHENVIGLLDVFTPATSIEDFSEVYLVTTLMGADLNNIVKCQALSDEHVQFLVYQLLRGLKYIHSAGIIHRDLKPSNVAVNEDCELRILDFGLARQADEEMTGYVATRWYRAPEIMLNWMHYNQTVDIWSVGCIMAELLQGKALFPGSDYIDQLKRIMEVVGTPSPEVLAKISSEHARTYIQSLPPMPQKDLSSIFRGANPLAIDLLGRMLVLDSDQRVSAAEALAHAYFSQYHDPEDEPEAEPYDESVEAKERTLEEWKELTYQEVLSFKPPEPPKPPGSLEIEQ
T1 sequence (O14757 whole entry, species assumed): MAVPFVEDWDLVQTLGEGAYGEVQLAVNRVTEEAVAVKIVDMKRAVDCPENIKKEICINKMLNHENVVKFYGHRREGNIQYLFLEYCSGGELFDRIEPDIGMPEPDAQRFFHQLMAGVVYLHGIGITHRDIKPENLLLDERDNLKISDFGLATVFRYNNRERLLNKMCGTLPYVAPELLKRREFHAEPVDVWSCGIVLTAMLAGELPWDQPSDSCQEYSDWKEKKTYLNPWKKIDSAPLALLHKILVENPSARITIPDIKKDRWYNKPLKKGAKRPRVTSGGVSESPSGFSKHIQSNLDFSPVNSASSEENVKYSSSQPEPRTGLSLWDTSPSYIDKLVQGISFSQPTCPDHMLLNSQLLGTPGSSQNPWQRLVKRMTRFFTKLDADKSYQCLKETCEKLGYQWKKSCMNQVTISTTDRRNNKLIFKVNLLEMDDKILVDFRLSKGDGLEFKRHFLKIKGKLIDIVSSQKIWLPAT
T3 sequence (P41240 whole entry, species assumed): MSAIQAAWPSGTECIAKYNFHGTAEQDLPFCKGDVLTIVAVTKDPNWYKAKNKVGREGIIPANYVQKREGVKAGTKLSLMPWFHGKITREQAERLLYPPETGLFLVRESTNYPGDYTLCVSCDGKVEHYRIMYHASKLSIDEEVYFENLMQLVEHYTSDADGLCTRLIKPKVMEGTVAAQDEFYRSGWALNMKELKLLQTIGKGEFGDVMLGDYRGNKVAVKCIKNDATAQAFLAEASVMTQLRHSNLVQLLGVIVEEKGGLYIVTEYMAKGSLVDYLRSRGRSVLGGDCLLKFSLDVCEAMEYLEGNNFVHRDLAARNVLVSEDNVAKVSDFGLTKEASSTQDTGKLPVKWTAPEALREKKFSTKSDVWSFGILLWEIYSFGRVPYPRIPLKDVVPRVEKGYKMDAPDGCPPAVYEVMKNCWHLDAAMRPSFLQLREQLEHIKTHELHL
T19 sequence (O00141 whole entry, species assumed): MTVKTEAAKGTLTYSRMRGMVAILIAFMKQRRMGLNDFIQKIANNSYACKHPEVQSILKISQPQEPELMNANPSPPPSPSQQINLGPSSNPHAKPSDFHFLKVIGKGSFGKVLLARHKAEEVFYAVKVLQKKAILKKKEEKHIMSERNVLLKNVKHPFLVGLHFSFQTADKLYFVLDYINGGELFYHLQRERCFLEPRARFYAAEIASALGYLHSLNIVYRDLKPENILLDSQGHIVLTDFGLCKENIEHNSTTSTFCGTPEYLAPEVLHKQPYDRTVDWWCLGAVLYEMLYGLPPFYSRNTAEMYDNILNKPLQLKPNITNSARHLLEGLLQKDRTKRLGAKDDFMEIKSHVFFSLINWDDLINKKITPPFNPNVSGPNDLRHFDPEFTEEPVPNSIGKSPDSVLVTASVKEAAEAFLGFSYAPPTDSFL
T7 sequence (P06213 28-1382): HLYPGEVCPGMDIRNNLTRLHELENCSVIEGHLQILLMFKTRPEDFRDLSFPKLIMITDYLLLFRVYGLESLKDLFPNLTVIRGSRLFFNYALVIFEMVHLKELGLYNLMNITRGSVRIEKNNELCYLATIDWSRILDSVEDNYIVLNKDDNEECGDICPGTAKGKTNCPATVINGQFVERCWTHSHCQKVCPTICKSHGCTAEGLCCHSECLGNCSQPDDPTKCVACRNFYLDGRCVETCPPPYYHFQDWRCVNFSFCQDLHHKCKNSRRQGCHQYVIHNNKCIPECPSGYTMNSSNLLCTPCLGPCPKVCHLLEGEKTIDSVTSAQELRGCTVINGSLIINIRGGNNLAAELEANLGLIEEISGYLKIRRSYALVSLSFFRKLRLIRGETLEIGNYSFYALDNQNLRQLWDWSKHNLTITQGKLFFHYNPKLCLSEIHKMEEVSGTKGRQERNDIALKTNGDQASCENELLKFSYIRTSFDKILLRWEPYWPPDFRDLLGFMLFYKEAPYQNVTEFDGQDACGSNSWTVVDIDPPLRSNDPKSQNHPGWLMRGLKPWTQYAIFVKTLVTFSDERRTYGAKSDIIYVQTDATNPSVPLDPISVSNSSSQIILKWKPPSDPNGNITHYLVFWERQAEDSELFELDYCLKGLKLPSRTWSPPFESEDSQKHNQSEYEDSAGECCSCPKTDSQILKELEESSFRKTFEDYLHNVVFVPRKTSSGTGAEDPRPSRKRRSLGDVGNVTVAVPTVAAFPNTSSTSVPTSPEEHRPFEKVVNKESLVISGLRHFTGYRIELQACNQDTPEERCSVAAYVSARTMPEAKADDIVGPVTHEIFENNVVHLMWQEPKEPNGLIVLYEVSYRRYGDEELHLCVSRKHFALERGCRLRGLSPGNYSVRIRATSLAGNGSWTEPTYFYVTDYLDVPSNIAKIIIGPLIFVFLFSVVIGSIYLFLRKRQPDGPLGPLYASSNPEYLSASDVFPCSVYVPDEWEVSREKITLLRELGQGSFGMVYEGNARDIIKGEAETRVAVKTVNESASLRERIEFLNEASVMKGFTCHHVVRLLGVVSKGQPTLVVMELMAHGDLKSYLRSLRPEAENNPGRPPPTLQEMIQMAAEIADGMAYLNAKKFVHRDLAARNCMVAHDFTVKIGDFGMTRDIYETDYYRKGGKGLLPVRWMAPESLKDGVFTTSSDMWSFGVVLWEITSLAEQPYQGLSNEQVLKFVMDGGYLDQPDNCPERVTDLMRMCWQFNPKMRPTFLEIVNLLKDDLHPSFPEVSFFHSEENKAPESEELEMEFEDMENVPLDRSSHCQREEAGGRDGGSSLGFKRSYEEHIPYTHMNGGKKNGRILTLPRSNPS

For the molecule `NC(=O)[C@H]1[C@H]2C[C@H]3[C@H]1Nc1nc(ncc1F)Nc1cccc(c1)CSS[C@@H]3C2` [Example 10], the “% inhibition CHK1” value on CHK1 is on record as 73%. Moreover, at CHK2, the “% inhibition CHK2” value was 12%. Moreover, the inhibition (commonly the change of the read-out against control, counted positive when it falls) at 1 µM on CSK was found to be 56%; on DYRK1-alpha, 83%; at EphB3, 4%; against IGF1-R, 2%; against IR, 37%; against IRR it was 72%. The inhibition at 1 µM on S6K1 turned out to be 94%; against SAPK2-beta, 81%; on SAPK4, 44%; against SGK it was 82%. Further, on MARK3, the “% inhibition MARK3” value was 74%. Besides, the “% inhibition MST4” value on MST4 is 59%. Further, the “% inhibition NEK6” value at NEK6 amounted to 93%. Further, the “% inhibition Nek2a” value on Nek2a is listed as 66%. The “% inhibition PAK6” value at PAK6 is given as 81%. In addition, at PIM-2, the “% inhibition PIM-2” value worked out at 70%. On PKA, the “% inhibition PKA” value was 72%. Further, in the series with VEGFR, the “% inhibition VEGFR” value is 15%.
In the case of `NC(=O)[C@H]1[C@H]2C[C@H]3[C@H]1Nc1nc(ncc1F)Nc1cccc(c1)OCCS[C@@H]3C2` [Example 20], the 50% inhibitory concentration (IC50) against FAK(h), against IRAK4(h), against Pyk2(h), at Ret(h) and against Tie2(h) was 101 to 1000 nM throughout.
As to `Fc1cnc2nc1NC1CCCC(C1)OC/C=C\COc1cccc(c1)N2` (single isomer, unassigned) [Example 33, (16Z)-6-fluoro-14,19-dioxa-2,4,8,26-tetraazatetracyclo[18.3.1.1˜3,7˜0.1˜9,13˜]hexacosa-1(24),3(26),4,6,16,20,22-heptaene], at CHK1, the “% inhibition CHK1” value turned out to be 98%. Also, the “% inhibition CHK2” value at CHK2 is given as 77%. The inhibition at 1 µM against CSK was determined as 86%; on DYRK1-alpha it was 86%; against EphB3, 54%; against IGF1-R, 82%; against IR, 67%; at IRR, 69%. The inhibition at 1 µM came to 74% against S6K1, 83% at SAPK2-beta, 79% against SAPK4 and 87% against SGK. The “% inhibition MARK3” value on MARK3 turned out to be 73%. In addition, at MST4, the “% inhibition MST4” value amounted to 89%. Further, at Nek2a, the “% inhibition Nek2a” value is 82%. Besides, the “% inhibition PAK6” value on PAK6 came out at 90%. The “% inhibition PIM-2” value at PIM-2 is recorded as 85%. In addition, on PKA, the “% inhibition PKA” value is given as 82%. The “% inhibition VEGFR” value with VEGFR is recorded as 49%.
In the case of `C=C[C@@H]1C[C@@H]2/C=C/COc3cccc(c3)Nc3ncc(F)c(n3)N[C@H]2[C@H]1C(N)=O` (single isomer, unassigned) [Example 3], the ring closure, yield of all isomers in series [1] worked out at 15%.
For `NC(=O)[C@H]1[C@H]2C[C@H]3[C@H]1Nc1nc(ncc1F)Nc1cccc(c1)NC(=O)CS[C@@H]3C2` [Example 27], the IC50 (in general, the point on the concentration scale where inhibition reaches its midpoint) against Abl(T315I)(h) lay in the range of 1 to 100 nM; at IRAK4(h), 1 to 100 nM; at Ret(h) it was 1 to 100 nM; at Tie2(h) it was 101 to 1000 nM.
